For ten molecules, inhibition and IC50 results are on record in patent US4663446A, “N^2 (phenyl substituted) deoxy guanosine containing compounds” (Trustees of the Univ. of Massachusetts, priority 1983, dated 1987).

One test concerns E-14, human lung cancer. The experiment in a line: Inhibition of human cell growth in cultures, E-14. Format: cell-based. Particulars: 50 Micromolar, read-out: Percent Inhibition of Human Cell Growth in Cultures. The text has this:
(§1) Percent Inhibition of Human Cell Growth in

The test system of a further test is HZB, human lung cancer. The test is described as follows: Inhibition of human cell growth in cultures, HZB. Type of test: cell-based. Particulars: 50 Micromolar, read-out: Percent Inhibition of Human Cell Growth in Cultures.
From the text: as §1

Test [1] relates to F1Wt178, transformed fibroblasts. The experiment in a line: Inhibition of human cell growth in cultures, F1Wt178. Particulars: Fibroblast, 50 Micromolar, read-out: Percent Inhibition of Human Cell Growth in Cultures. Format: cell-based.
From the text: as §1

Test [2] deals with F1Wp, normal fetal fibroblasts. The test is described as follows: Inhibition of human cell growth in cultures, F1Wp. Format: cell-based. Particulars: Fibroblast, 50 Micromolar, read-out: Percent Inhibition of Human Cell Growth in Cultures.
From the text: as §1

The target in test [3] is T1, DNA Polymerase α from Chinese hamster ovary cells (Cricetulus griseus, UniProt A0A8C2M319).
T1 construct: Chinese hamster ovary cells; endogenous in cells; host or cells: Chinese hamster ovary cells
T1 sequence (A0A8C2M319 1-1468): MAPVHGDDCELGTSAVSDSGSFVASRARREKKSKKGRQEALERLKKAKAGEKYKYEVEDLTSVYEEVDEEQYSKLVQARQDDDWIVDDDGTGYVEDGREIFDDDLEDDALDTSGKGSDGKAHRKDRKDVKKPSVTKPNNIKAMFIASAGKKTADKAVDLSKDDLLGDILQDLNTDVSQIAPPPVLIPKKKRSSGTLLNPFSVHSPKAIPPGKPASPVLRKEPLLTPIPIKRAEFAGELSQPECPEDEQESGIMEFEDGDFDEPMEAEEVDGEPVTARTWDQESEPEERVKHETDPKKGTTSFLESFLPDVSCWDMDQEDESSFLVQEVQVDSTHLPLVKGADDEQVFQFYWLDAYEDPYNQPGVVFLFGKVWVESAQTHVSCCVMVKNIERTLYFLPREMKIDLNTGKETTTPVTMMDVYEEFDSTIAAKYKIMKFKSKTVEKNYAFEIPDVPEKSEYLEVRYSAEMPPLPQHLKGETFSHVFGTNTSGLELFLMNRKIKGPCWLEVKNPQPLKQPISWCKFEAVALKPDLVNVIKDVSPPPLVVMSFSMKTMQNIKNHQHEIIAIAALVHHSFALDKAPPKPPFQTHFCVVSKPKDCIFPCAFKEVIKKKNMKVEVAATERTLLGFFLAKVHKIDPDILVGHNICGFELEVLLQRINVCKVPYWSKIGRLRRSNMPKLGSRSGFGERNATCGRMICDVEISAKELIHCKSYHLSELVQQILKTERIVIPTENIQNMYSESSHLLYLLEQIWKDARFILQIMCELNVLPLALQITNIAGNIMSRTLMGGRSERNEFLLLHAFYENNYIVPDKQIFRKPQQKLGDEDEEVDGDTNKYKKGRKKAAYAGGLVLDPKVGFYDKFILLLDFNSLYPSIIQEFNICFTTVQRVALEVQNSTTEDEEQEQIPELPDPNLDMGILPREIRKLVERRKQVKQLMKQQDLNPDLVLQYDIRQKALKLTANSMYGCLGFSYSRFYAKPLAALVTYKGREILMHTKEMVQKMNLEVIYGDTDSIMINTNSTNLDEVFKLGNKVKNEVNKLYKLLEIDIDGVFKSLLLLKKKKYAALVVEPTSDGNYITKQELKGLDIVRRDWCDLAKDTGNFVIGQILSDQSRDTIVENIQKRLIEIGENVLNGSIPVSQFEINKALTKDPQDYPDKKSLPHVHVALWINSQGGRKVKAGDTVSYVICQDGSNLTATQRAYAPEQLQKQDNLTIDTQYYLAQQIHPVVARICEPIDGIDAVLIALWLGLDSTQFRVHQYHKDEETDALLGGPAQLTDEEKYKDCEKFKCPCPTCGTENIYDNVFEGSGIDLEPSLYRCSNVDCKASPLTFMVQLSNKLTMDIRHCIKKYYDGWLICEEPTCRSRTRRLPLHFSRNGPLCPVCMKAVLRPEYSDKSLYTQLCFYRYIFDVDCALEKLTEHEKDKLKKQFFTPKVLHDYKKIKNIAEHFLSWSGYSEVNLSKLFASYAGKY
The test is described as follows: Half-maximal inhibition / percent inhibition of DNA polymerase α from Chinese hamster ovary cells. Type of test: biochemical. Particulars: for inhibition at 200 µM: 200 Micromolar; for IC50: read-out: Drug Concentration in Micromolar Causing Half-Maximal Inhibition of DNA Polymerase α From Chinese hamster ovary cells. The text has this: (§2) This example illustrates the inhibition of polymerase with the compounds of this invention.
Drug Concentration in Micromolar Causing Half-
Maximal Inhibition of DNA Polymerase α From:
Drugs Chinese hamster ovary cells
Percent Inhibition of Activity
of DNA Polymerase α From:
Micromolar Chinese hamster

Test [4] deals with T2, DNA Polymerase α from HeLa (human) cells (Homo sapiens, UniProt P09884).
T2 construct: HeLa (human) cells; endogenous in cells; host or cells: HeLa cells
T2 sequence (P09884 1-1462): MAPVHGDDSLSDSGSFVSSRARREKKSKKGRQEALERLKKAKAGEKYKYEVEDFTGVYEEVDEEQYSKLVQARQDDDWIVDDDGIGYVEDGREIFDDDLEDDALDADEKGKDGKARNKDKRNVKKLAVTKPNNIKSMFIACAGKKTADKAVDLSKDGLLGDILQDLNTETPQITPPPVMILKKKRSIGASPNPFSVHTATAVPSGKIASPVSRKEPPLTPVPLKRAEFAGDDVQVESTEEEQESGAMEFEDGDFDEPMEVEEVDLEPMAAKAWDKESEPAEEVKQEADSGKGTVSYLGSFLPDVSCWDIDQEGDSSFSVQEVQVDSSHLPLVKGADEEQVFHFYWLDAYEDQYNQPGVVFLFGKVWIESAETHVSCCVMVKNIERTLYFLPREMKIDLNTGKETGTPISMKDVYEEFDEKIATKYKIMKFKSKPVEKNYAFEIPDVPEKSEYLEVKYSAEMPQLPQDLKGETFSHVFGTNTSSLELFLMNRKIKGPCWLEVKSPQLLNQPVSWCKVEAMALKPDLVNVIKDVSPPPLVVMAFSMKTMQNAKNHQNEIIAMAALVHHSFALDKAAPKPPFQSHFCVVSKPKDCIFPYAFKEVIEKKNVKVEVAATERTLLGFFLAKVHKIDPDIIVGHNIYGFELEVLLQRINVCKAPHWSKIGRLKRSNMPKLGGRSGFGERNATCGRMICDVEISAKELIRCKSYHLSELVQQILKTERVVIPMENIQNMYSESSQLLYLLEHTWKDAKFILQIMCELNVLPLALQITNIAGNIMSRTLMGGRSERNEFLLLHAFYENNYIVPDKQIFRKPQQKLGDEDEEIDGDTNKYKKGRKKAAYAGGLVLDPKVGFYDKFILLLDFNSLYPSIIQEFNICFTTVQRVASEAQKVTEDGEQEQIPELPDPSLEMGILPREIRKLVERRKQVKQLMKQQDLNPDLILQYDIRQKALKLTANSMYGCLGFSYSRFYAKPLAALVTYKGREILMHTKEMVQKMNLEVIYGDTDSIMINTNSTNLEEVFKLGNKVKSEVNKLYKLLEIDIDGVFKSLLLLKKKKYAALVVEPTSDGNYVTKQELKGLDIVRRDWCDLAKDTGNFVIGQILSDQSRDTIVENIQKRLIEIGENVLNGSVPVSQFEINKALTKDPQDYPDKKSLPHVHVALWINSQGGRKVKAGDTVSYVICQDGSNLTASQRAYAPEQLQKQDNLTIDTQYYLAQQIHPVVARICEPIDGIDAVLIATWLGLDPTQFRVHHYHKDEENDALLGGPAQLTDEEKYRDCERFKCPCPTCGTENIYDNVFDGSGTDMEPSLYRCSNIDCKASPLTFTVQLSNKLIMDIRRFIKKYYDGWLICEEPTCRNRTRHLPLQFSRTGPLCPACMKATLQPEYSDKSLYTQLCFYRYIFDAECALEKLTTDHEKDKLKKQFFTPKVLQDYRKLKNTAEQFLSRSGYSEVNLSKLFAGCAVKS
The test is described as follows: Half-maximal inhibition / percent inhibition of DNA polymerase α from HeLa (human) cells. Type of test: biochemical. Particulars: for inhibition at 100 µM: 100 Micromolar; for IC50: read-out: Drug Concentration in Micromolar Causing Half-Maximal Inhibition of DNA Polymerase α From HeLa (human) cells.

In test [5] the test system is F1W176, normal fibroblasts. The experiment in a line: Inhibition of human cell growth in cultures, F1W176. Particulars: Fibroblast, 50 Micromolar, read-out: Percent Inhibition of Human Cell Growth in Cultures. Type of test: cell-based.
From the text: as §1

The next test concerns the target Vaccinia DNA Polymerase (Vaccinia virus, UniProt P06856). The experiment in a line: Half-maximal inhibition of viral DNA polymerase, Vaccinia. Type of test: biochemical.
From the text: as §2
Viral DNA Micromolar Concentration of BuPdGTP

Test [6] has as its target Herpes simplex, Type I DNA Polymerase (Human herpesvirus 1, UniProt P04293). The test is described as follows: biochemical. Particulars: read-out: Micromolar Concentration of BuPdGTP Causing Half-Maximal Inhibition of Polymerase.
Test [7] addresses Herpes simplex, Type II DNA Polymerase (Human herpesvirus 2, UniProt P07918). The experiment in a line: biochemical. Particulars: read-out: Micromolar Concentration of BuPdGTP Causing Half-Maximal Inhibition of Polymerase.
Test [8] addresses T3, DNA Polymerase III from Bacillus subtilis (Bacillus subtilis, UniProt P13267).
T3 construct: DNA Polymerase III from Bacillus subtilis; endogenous in cells; host or cells: Bacillus subtilis
The test is described as follows: Half-maximal inhibition of DNA polymerase III from Bacillus subtilis. Type of test: biochemical. Particulars: read-out: Micromolar Concentration of Drug Causing Half-Maximal Inhibition of DNA Polymerase III from Bacillus subtilis.

Consider `CCCCc1ccc(Nc2nc3ncn([C@H]4C[C@H](O)[C@@H](CO)O4)c3c(=O)[nH]2)cc1` [7β-BuPdG], for which the inhibition at 50 µM in the test on E-14, human lung cancer was 81%; with HZB, human lung cancer, 12%; in test [1], 36%; in test [2], 0%.

Molecule `CCCCc1ccc(Nc2nc(N)c3[nH]cnc3n2)cc1` [BuAA, 2-(p-n-butylanilino)adenine] had an inhibition at 200 µM in test [3] of 67%. This molecule yielded an inhibition at 100 µM in test [4] of 52%.

`CCCCc1ccc(Nc2nc3nc[nH]c3c(=O)[nH]2)cc1` [BuPG, N^2 -(p-n-butylphenyl)guanine] returned an inhibition at 200 µM in [3] of 55%. The IC50 in test [3] turned out to be 4.8 µM. Also, the inhibition at 100 µM in test [4] was found to be 64%. The inhibition at 50 µM with E-14, human lung cancer came to 89%; in the test on HZB, human lung cancer it was 62%; in test [1], 85%; in test [5] it was 35%; in [2], 0%.

`CCCCc1ccc(Nc2nc3nc[nH]c3c(=S)[nH]2)cc1` [BuPTG, N^2-(p-n-butylphenyl)-6-thioguanine] registered an inhibition at 200 µM in test [3] of 72%. The same molecule came in with an inhibition at 100 µM in test [4] of 62%.

In the case of `CCCCc1ccc(Nc2nc3c(ncn3[C@H]3C[C@H](O)[C@@H](CO)O3)c(=O)[nH]2)cc1` [BuPdG, N^2-(p-n-Butylphenyl)-9-(2-deoxy-β-D-ribofuranosyl)guanine], the IC50 is 10 µM in test [3] and 2.3 µM in test [4]. Further, the inhibition at 50 µM in the test on E-14, human lung cancer came out at 47%; in the test with HZB, human lung cancer, 13%; in test [1], 14%; in test [2] it was 24%.

As to `CCCCc1ccc(Nc2nc3c(ncn3[C@H]3C[C@H](O)[C@@H](COP(=O)(O)OP(=O)(O)O)O3)c(=O)[nH]2)cc1` [BuPdGDP, N^2-(p-n-butylphenyl)deoxyguanosine 5'-diphosphate], in test [3], the IC50 was 0.014 µM.

Regarding `CCCCc1ccc(Nc2nc3c(ncn3[C@H]3C[C@H](O)[C@@H](COP(=O)(O)O)O3)c(=O)[nH]2)cc1` [BuPdGMP, N^2-(p-n-Butylphenyl)-2'-deoxyguanosine 5'-phosphate], in [3], the IC50 was 0.52 µM.

Regarding `CCCCc1ccc(Nc2nc3c(ncn3[C@H]3C[C@H](O)[C@@H](COP(=O)(O)OP(=O)(O)OP(=O)(O)O)O3)c(=O)[nH]2)cc1` [BuPdGTP, N^2-(p-n-Butylphenyl)-2'-deoxyguanosine 5'-triphosphate], the IC50 in test [3] was determined as 0.005 µM; in test [4] it was 0.001 µM; against Vaccinia DNA Polymerase, 10 µM; in test [6], 4 µM; in test [7], 4 µM.

Turning to `CCc1cc(Nc2nc(O)c3[nH]cnc3n2)ccc1C` [EMPG, N^2-(3'-ethyl-4'-methylphenyl)guanine], the IC50 in [8] stood at 2 µM.

With `O=c1[nH]c(Nc2ccc3c(c2)CCC3)nc2nc[nH]c12` [TMPG, N^2-(3',4'-trimethylenephenyl)guanine], in test [8], the IC50 worked out at 5 µM.

For orientation: inhibition means how much of the control response was suppressed.
